In article PMC10608985, “Retention Behavior of Anticancer Thiosemicarbazides in Biomimetic Chromatographic Systems and In Silico Calculations” (Molecules, 2023):

How the values were obtained:
[1] = system: α1-acid glycoprotein (AGP); test: HPLC on immobilized AGP column, affinity and % plasma–protein binding; assay type: in vitro ADME, human; conditions: for log K AGP: binding equilibrium constant from calibration curve (Equation 9) of log k AGP; for fraction unbound: human, pH 7.4, % plasma–protein binding converted from log K AGP (Equation 10), read-out: %PPB AGP (converted); for log k AGP: retention on AGP column, 50 mM ammonium acetate pH 7.4 / propan-2-ol 85/15 (v/v)
Experimental: (§1) Measurements on HSA and AGP immobilized protein columns were carried out with […] isopropanol content in the aqueous mobile phase.
(§2) The standard calibration curve was used to predict log K values (K—binding equilibrium constant) of investigated compounds to HSA and AGP. Next, the log K values were converted into a percentage of plasma–protein binding (%PPB) of the compounds (Table 2). […] It is the lowest for compound 16 with -NO2 substituent, unsubstituted compound 1, and fluorine derivatives 2 and 9. In a group of […] derivatives in the same position of the phenyl ring, the %PPB to AGP increases with the increase in the atomic weight of the halogen atom and the lipophilicity of the molecule.
(§3) HPLC measurements were performed using a liquid chromatograph Knauer (Knauer, Berlin, Germany) with a dual pump, a 20 µL simple injection valve, and a UV–visible detector. The compounds were detected under UV light at 280 nm at room temperature. The retention time of an unretained solute (t0) was determined by the injection of a small amount of citric acid dissolved in water.
(§4) A human serum albumin (HSA) immobilized on the 5 µm silica gel column 100 × 3 mm (Chiralpac) and an α1-acid glycoprotein (AGP) immobilized on the 5 µm silica gel column 100 × 4 mm (Chiralpac) were used. The compounds were dissolved at 0.5 mg/mL concentration in 50% propan-2-ol and ammonium acetate solution (pH = 7.4) mixtures for HSA measurements. The mobile phase was composed of 50 mM ammonium acetate solution (pH = 7.4) and propan-2-ol at 85/15 (v/v) for AGP, respectively. The flow of mobile phases was 0.5 mL×min^−1. Log k values for the selected mobile phase were determined for all studied compounds and standard substances. The % protein plasma binding (% PPB) values were calculated from the calibration curve according to Valko et al..
(§5) Calibration of the protein columns: The column performance check and the calibration check were performed before measurements. The racemic mixture of warfarin was used for their performance evaluation. The following calibration set of drugs was applied: bromazepam, carbamazepine, diclofenac, nicardipine, nizatidine, piroxicam for HSA and bromazepam, chlorpromazine, imipramine, nicardipine, nizatidine, propranolol, and warfarin for AGP. The analytical standards were purchased from Sigma Aldrich Steinhen, Steinheim am Albuch, Germany). The drugs were dissolved at 0.5 mg/mL concentration in 50% propan-2-ol and ammonium acetate solution mixtures (pH = 7.4). The obtained log k values from HPLC were plotted against the log K values (K—binding equilibrium constant, log K—linearized PPB) based on the literature data for plasma–protein binding (%, PPB). The following relationships were obtained: log KHSA = 0.2513 (±0.0984) + 1.0525 (±0.1171) log k HSA(8) n=6, R=0.9761, R^2 = 0.9528, Radj2 = 0.9410, s = 0.1948 log KAGP = 0.1733 (±0.0574) + 0.8902 (±0.0787) log k AGP(9) n=7, R=0.9810, R^2 = 0.9623, Radj2 = 0.9548, s = 0.1113
(§6) Log K values were converted into %PPB using the following equation [15]:(10) %PPB=101×10^logK/1+10^logK

[2] = set-up: method as in Kozyra et al. [31]; conditions: MeOH/20 mM acetate buffer, pH 7.4, ref Kozyra et al. [31], cited from earlier work; for log kw C-18: intercept of Soczewiński–Wachtmeister equation (water as mobile phase); for -S C-18: slope of Soczewiński–Wachtmeister equation
[3] = HPLC lipophilicity on cholesterol (Chol) stationary phase; assay type: physicochemical; conditions: pH 7.4; for Log k Chol: Table S3; for log kw Chol: intercept, linear extrapolation to water; for log kw Chol / -S Chol: MeOH/20 mM acetate buffer; for -S Chol: slope of Soczewiński–Wachtmeister equation
Experimental: (§7) For the evaluation of the compounds the following stationary phases were used: C-18; biomimetic, IAM; cholesterol (Chol); immobilized proteins HSA and AGP. For the lipophilicity determination, MeOH (C-18, Chol) or ACN (IAM) were applied as the organic modifiers. The measurements were performed at pH 7.4 of the mobile phase. The regular changes in the retention of all solutes used as organic modifier content in the mobile phase on three studied stationary phases were found. It is expressed by the Soczewiński–Wachtmeister Equation (1):log k = log kw + S (% organic modifier)(1) where log kw—the intercept; S—the slope of regression curve. […] Log kw as well as S parameters are commonly applied as lipophilicity descriptors.
as §3
Cogent 4 UDC Cholesterol (150 × 2.1 mm, 4 µm) MicroSolv Technology Corporation (Leland, NC, USA) column was used. The mobile phase consisted of different volume mixtures of MeOH as the organic modifier and 20 mM acetate buffer as the aqueous phase, to obtain pH = 7.4. The concentrations of the organic modifier were in the range from 0.3 to 0.8 (v/v) with step 0.05 or 0.1 (Table S3 in the Supplementary Materials). The flow rate was 0.35 mL × min^−1.

[4] = HPLC lipophilicity on IAM (immobilized artificial membrane, phosphatidylcholine) stationary phase; assay type: physicochemical; conditions: pH 7.4; for Log k IAM: Table S2; for log kw IAM: intercept, linear extrapolation to water; for log kw IAM / -S IAM: ACN/20 mM phosphate buffer; for -S IAM: slope of Soczewiński–Wachtmeister equation
Experimental: as §7, §3
A Rexchrom IAM.PC.DD2 (12 μm, 100 × 4.6 mm, 300 Å) (Regis Technologies, Morton Grove, IL, USA) column was used as the stationary phase. The compounds were dissolved at a concentration of 0.5 mg × mL^−1 in MeOH. The mobile phases consisted of different volume fractions of ACN and 20 mM phosphate buffer; the aqueous phase maintained a pH = 7.4 (0.02 M KH2PO4, Na2HPO4 and 0.15 M KCl). The acetonitrile concentration ranged from 0.05 to 0.4 (v/v), depending on the structure of compound, at 0.05 intervals (Table S2 in the Supplementary Materials). The flow rate was 1 mL × min^−1.

[5] = target: T1, human serum albumin (HSA) (Homo sapiens, UniProt P02768); test: HPLC on immobilized HSA column, affinity and % plasma–protein binding; assay type: in vitro ADME; conditions: for log K HSA: binding equilibrium constant from calibration curve (Equation 8) of log k HSA; for fraction unbound: human, pH 7.4, % plasma–protein binding converted from log K HSA (Equation 10), read-out: %PPB HSA (converted); for log k HSA: retention on HSA column, 50 mM ammonium acetate pH 7.4 / propan-2-ol 85/15 (v/v)
T1 construct: purchased Chiralpac
T1 sequence (P02768 25-609): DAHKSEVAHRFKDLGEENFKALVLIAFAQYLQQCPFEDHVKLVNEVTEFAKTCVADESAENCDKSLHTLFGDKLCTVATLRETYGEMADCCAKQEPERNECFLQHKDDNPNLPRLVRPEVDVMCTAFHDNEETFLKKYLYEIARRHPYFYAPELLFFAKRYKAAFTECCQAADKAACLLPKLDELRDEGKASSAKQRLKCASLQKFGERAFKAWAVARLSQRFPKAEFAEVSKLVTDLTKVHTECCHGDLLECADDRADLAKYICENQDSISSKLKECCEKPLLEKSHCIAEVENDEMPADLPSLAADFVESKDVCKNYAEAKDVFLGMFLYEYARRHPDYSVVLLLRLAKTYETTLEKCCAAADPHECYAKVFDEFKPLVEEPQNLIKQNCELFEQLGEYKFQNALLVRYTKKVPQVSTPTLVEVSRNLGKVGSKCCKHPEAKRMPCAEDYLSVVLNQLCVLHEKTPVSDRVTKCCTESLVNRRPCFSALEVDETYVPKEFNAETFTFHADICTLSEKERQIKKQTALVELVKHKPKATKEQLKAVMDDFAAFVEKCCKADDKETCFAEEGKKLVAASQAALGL
Experimental: as §1, §2, §3, §4, §5, §6

log K AGP [1]	fraction unbound [1]	log k AGP [1]	Log k Chol ([3]; MeOH 0.40 v/v in mobile phase)	Log k Chol ([3]; MeOH 0.45 v/v in mobile phase)	Log k Chol ([3]; MeOH 0.50 v/v in mobile phase)	Log k Chol ([3]; MeOH 0.60 v/v in mobile phase)	Log k Chol ([3]; MeOH 0.80 v/v in mobile phase)	log kw Chol [3]	-S Chol [3]	Log k IAM ([4]; ACN 0.15 v/v in mobile phase)	Log k IAM ([4]; ACN 0.20 v/v in mobile phase)	Log k IAM ([4]; ACN 0.25 v/v in mobile phase)	Log k IAM ([4]; ACN 0.30 v/v in mobile phase)	Log k IAM ([4]; ACN 0.35 v/v in mobile phase)	-S IAM [4]	log K HSA [5]	log k HSA [5]	Structure (SMILES)	log kw C-18 [2]	-S C-18 [2]	further results
0.5075	0.23	0.3754	1.050	0.836	0.479	0.206	-0.946	2.9842	4.8387	1.009	0.673	0.368	-0.038	-0.210	6.0976	1.9333	1.5981	O=C(COc1ccccc1)NNC(=S)Nc1ccc(Cl)cc1 [Compound 10]	2.5914	4.5132	Log k Chol ([3]; MeOH 0.30 v/v in mobile phase): 1.475; Log k Chol ([3]; MeOH 0.35 v/v in mobile phase): 1.331; Log k Chol ([3]; MeOH 0.70 v/v in mobile phase): -0.396; Log k IAM ([4]; ACN 0.10 v/v in mobile phase): 1.235; log kw IAM [4]: 1.8779; fraction unbound [5]: 0.002
0.7514	0.142	0.6494	1.025	0.758	0.405	0.062	-1.016	3.0227	5.0400	0.809	0.533	0.278	-0.130	-0.258	5.6500	1.5246	1.2098	O=C(COc1ccccc1)NNC(=S)Nc1cccc2ccccc12 [Compound 18]	2.6769	4.6919	Log k Chol ([3]; MeOH 0.30 v/v in mobile phase): 1.494; Log k Chol ([3]; MeOH 0.35 v/v in mobile phase): 1.296; Log k IAM ([4]; ACN 0.10 v/v in mobile phase): 1.105; log kw IAM [4]: 1.6606; fraction unbound [5]: 0.019
0.4018	0.277	0.2567	0.620	0.440	0.110	-0.157	-1.006	2.2209	4.0307	0.284	0.085	-0.142	-0.518	-0.490	4.4559	1.0986	0.8050	O=C(COc1ccccc1)NNC(=S)Nc1ccccc1 [Compound 1]	1.7866	3.7611	Log k Chol ([3]; MeOH 0.30 v/v in mobile phase): 0.979; Log k Chol ([3]; MeOH 0.35 v/v in mobile phase): 0.857; Log k IAM ([4]; ACN 0.05 v/v in mobile phase): 0.999; Log k IAM ([4]; ACN 0.10 v/v in mobile phase): 0.548; Log k IAM ([4]; ACN 0.40 v/v in mobile phase): -0.556; log kw IAM [4]: 1.0288; fraction unbound [5]: 0.065
0.5886	0.197	0.4665	1.246	0.978	0.627	0.400	-1.016	3.4517	5.4505	1.240	0.870	0.557	0.067	-0.103	6.2034	1.6879	1.3649	O=C(COc1ccccc1)NNC(=S)Nc1ccc(Cl)cc1Cl [Compound 13]	3.2152	5.1803	Log k Chol ([3]; MeOH 0.70 v/v in mobile phase): -0.329; Log k IAM ([4]; ACN 0.40 v/v in mobile phase): -0.430; fraction unbound [5]: 0.01
0.8556	0.114	0.7664	1.443	1.026	0.834	0.522	-0.984	3.7019	5.6623	1.304	0.952	0.573	0.088	-0.074	6.9157	2.1342	1.7890	O=C(COc1ccccc1)NNC(=S)Nc1cccc(I)c1 [Compound 8]	3.0072	4.9651	Log k Chol ([3]; MeOH 0.70 v/v in mobile phase): -0.165; Log k IAM ([4]; ACN 0.40 v/v in mobile phase): -0.404; log kw IAM [4]: 2.3083
